In ChEMBL document CHEMBL1201862, “PubChem BioAssay data set” (2004):
Calls of active or inactive are those of the source.

Key:
[1] = Counterscreen for IDE inhibitors: Luminescence-based cell-based high throughput dose response assay to identify compounds that are cytotoxic to HEK cells. [Related pubchem assays: 434962 (Primary screen (IDE inhibitors in singlicate)), 449730 (Counterscreen (Cytotoxicity in triplicate)), 435028 (Confirmation (IDE inhibitors in triplicate)) …; assay type: functional; settings: HEK293
Insulin-degrading enzyme = molecular target: T1, Insulin-degrading enzyme (Homo sapiens, UniProt P14735); test: Dose Response: Fluorescence polarization-based cell-based high throughput dose response assay for inhibitors of insulin-degrading enzyme (IDE). [Related pubchem assays: 434962 (Primary screen (IDE inhibitors in singlicate)), 449730 (Counterscreen (Cytotoxicity in triplicate)), 435028 (Confirmation (IDE inhibitors in triplicate)), 434984 (Summary …; assay type: functional
T1 sequence (P14735 whole entry): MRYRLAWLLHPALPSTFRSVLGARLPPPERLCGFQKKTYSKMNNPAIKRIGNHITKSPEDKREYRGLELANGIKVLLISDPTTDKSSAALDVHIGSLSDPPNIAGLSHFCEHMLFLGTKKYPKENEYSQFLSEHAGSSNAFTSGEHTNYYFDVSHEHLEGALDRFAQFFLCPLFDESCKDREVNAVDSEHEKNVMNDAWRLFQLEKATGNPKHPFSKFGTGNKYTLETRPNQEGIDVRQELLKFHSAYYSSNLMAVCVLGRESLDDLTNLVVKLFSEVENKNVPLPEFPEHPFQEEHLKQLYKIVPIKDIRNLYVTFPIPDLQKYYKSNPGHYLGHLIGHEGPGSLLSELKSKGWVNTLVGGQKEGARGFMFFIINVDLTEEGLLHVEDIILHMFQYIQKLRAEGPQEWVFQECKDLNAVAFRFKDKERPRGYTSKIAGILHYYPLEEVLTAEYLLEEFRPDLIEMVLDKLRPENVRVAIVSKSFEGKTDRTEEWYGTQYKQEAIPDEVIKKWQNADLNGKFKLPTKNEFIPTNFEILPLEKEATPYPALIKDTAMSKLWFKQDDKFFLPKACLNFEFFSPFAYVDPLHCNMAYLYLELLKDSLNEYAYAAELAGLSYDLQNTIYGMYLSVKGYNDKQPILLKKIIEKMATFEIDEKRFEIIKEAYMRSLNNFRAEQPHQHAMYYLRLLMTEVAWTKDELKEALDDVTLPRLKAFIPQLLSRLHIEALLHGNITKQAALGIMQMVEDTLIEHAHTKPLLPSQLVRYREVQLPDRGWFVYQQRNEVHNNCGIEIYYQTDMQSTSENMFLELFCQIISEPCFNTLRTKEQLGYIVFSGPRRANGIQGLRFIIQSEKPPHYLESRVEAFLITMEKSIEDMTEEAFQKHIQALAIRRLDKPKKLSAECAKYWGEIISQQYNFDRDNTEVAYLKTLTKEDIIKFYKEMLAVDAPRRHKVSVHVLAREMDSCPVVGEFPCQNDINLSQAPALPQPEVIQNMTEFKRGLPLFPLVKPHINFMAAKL

Candida albicans [2] = test: fluconazole-resistant Candida strain growth inhibitors – CaCi-8 strain, dry powder, set 4, dose response (AID 488950); assay type: functional, organism-based
Candida albicans [3] = test: Candida growth reduction in fluconazole presence – CaCi-2 strain, Alamar Blue, dry powder, set 2, antifungal resistance reversal project, dose response (AID 488930); assay type: functional, organism-based
Candida albicans [4] = test: C. albicans growth inhibition with fluconazole – CaCi-2 strain, Alamar Blue, dry powder, set 4, dose response (AID 488943); assay type: functional, organism-based
Candida albicans [5] = test: resistant Candida growth with fluconazole co-treatment – CaCi-8 strain, Alamar Blue, dry powder, set 2, dose response (AID 488909); assay type: functional, organism-based
[6] = molecular target: T2, Luciferin 4-monooxygenase (Photinus pyralis, UniProt P08659); test: Counter Screen for Luciferase-based Assay Positives. [Related pubchem assays: 620, 618, 411 ]
T2 sequence (P08659 whole entry): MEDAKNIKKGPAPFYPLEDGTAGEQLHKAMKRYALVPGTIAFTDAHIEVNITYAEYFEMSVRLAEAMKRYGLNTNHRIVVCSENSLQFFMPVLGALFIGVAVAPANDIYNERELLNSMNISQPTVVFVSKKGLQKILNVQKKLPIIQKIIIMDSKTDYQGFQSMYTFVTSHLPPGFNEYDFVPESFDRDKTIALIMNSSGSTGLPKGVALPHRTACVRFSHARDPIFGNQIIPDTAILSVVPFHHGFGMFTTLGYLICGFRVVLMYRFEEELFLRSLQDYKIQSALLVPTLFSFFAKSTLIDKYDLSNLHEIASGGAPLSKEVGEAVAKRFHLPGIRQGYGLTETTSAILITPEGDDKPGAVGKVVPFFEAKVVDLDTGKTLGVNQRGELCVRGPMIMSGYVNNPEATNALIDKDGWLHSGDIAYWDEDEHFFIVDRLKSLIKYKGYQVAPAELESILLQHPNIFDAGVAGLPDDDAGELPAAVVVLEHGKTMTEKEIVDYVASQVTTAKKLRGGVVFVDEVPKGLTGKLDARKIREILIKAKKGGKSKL

cells [7] = assay type: functional, cell-based
[8] = HPDE-C7 pancreatic duct cell viability loss – fluorescence, HTS (AID 430); assay type: functional, cell-based; settings: Homo sapiens
[9] = molecular target: T2, Luciferin 4-monooxygenase; test: inhibition of purified Photinus pyralis luciferase – biochemical, luminescence, dose response (AID 1891)
[10] = Luminescence Cell-Based Dose Confirmation HTS to Identify Inhibitors of Platelet Dense Granule Release. [Related pubchem assays: 1663 (Primary HTS), 1678 (Summary of Project)]; assay type: functional
[11] = viability loss of HPDE-C7K cells – cell-based, fluorescence, HTS, primary screen (AID 431); assay type: functional; settings: Homo sapiens
cells [12] = assay type: functional, cell-based; remark: listed apart in the source
HT-1080 = test: HT1080 cell viability loss – fluorescence readout (AID 620); assay type: functional, cell-based; settings: Homo sapiens
[13] = molecular target: T3, Sphingosine 1-phosphate receptor 4 (Homo sapiens, UniProt O95977); test: Late stage fluorescence dose response cell-based screening assay for antagonists of the Sphingosine 1-Phosphate Receptor 4 (S1P4). [Related pubchem assays: 1524 (Confirmation screen (S1P4 antagonists).), 1510 (Primary screen (S1P4 antagonists).), 1853 (Summary AID (S1P4 antagonists).), 1692 (Dose response screen (S1P4 antagonists).)]; assay type: functional
T3 sequence (O95977 whole entry): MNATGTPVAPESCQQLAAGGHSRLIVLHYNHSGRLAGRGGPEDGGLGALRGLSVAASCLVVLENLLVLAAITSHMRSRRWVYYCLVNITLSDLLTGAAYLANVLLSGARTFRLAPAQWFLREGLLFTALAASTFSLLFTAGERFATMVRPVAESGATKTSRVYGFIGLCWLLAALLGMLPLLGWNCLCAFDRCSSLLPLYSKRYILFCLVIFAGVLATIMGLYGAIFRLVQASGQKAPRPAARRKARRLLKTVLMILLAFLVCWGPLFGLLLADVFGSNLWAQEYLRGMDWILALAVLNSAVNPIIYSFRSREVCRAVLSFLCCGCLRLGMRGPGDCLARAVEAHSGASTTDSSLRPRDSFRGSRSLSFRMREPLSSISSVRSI

[14] = molecular target: T3, Sphingosine 1-phosphate receptor 4; test: Fluorescence dose response cell-based high throughput screening assay for antagonists of the Sphingosine 1-Phosphate Receptor 4 (S1P4). [Related pubchem assays: 1524 (Confirmation in triplicates.), 1510 (Primary screen.)]; assay type: functional
[15] = molecular target: Sphingosine 1-phosphate receptor 1 (Homo sapiens, UniProt P21453); assay type: functional;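 further: Tango beta-arrestin reporter U2OS cells stimulated with S1P near its EC80; inhibitor potency meaning antagonism of receptor activation by the natural agonist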
Sequence of Sphingosine 1-phosphate receptor 1 (P21453 whole entry): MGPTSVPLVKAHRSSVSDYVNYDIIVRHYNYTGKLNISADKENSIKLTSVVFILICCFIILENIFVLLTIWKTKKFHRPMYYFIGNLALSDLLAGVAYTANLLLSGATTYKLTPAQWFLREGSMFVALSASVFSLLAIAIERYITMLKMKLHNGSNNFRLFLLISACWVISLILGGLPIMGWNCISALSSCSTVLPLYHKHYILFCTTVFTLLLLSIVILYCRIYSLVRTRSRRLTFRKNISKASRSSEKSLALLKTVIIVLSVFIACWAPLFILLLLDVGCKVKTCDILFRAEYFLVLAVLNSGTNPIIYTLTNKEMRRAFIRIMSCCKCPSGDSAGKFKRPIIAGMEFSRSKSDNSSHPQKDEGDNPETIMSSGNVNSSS

[16] = THP-1 cell cytotoxicity, dose response, cytotoxicity control for non-replicating M. tuberculosis project (AID 489025); assay type: functional
[17] = HepG2 cell cytotoxicity, dose response, cytotoxicity control for non-replicating M. tuberculosis project (AID 489018); assay type: functional; settings: Mycobacterium tuberculosis
cells [18] = assay type: functional
CHO = CHO cell viability loss, potency – luminescence, cytotoxicity control for TLR9-MyD88 binding inhibitor project, dose response (AID 588339); assay type: functional, cell-based, hamster; settings: Cricetulus griseus;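 further: CHO cells stably coexpressing TLR9 and MyD88 fusions from primary screen; compound exposure lasted 48 hours before viability readout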
[19] = molecular target: T4, Replicative DNA helicase DnaB (Mycobacterium tuberculosis, UniProt P9WMR3); test: DnaB intein splicing inhibitors, dose response, biochemical, cell-free fluorescence (AID 449749); assay type: functional
T4 sequence (P9WMR3 whole entry): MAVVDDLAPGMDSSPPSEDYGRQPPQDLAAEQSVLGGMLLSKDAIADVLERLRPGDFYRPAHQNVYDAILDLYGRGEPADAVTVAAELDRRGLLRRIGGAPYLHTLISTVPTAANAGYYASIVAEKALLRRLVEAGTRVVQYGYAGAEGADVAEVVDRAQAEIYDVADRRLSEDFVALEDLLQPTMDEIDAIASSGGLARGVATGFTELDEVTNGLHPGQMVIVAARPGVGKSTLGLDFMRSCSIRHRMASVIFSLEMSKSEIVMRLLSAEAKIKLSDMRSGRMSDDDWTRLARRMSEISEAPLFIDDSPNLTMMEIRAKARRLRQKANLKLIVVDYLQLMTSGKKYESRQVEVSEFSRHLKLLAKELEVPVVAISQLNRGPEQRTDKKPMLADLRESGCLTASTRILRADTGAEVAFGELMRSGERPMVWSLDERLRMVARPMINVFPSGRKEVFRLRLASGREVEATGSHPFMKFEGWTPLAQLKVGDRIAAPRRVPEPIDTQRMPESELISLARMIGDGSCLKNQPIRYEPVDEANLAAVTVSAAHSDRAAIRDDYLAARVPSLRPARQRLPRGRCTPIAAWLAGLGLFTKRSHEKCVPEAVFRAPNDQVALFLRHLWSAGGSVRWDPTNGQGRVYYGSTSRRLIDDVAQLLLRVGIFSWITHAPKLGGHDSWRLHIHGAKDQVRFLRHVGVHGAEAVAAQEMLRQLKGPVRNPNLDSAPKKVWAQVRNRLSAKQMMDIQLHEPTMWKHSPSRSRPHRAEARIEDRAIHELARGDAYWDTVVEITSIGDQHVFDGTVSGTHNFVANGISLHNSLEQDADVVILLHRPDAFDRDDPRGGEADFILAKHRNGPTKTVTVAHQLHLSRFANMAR

Protein RecA = molecular target: T5, Protein RecA (Mycobacterium tuberculosis, UniProt P9WHJ3); test: Fluorescence Cell-Free Homogeneous Dose Retest to Identify Inhibitors of RecA-Intein Splicing Activity. [Related pubchem assays (depositor defined):AID2097, AID2223, AID489010, AID492950]; assay type: functional
T5 sequence (P9WHJ3 whole entry): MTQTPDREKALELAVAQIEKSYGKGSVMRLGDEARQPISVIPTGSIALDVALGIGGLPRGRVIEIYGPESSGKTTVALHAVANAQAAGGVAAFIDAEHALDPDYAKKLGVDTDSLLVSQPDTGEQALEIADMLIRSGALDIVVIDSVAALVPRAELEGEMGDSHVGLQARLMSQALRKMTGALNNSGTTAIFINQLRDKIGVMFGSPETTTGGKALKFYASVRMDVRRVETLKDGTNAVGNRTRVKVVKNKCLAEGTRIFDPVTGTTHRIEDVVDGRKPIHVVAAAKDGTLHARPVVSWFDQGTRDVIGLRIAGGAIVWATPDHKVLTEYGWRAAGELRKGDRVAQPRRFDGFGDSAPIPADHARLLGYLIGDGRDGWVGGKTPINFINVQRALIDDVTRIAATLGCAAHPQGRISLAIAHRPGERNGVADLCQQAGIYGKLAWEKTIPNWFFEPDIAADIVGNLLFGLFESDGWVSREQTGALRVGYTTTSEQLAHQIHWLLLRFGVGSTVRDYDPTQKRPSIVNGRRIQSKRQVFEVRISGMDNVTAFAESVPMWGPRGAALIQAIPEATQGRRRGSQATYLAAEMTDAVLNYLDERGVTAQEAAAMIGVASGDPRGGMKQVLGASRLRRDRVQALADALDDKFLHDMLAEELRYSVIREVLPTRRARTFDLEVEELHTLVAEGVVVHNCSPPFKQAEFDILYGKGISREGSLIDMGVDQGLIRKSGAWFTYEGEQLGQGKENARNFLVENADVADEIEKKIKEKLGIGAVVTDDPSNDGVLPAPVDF

Beta Lactamase = Beta Lactamase (Pseudomonas aeruginosa, UniProt Q932Y6); test: BLA reporter interference, concentration series – BLA reporter cells, FRET fluorescence, artefact control for TLR9-MyD88 binding inhibitor project, dose response (AID 588341); assay type: cell-based;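 further: cell based assay in CHO-K1 cells stably expressing beta-lactamase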
Sequence of Beta Lactamase (Q932Y6 whole entry): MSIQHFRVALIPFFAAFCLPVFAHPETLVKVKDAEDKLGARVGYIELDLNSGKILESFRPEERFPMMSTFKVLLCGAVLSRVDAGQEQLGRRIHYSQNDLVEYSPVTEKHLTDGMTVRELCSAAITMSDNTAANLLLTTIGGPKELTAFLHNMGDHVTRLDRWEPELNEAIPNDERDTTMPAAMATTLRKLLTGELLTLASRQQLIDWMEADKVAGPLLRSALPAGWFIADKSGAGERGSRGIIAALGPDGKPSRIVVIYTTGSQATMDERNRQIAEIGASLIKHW

[20] = molecular target: T6, Beta-2 adrenergic receptor (Homo sapiens, UniProt P07550); test: ADRB2 activation measured by internalization – cell-based, FAP fluorogen, flow cytometry, cherry pick 1, dose response (AID 588763); assay type: functional
T6 sequence (P07550 whole entry): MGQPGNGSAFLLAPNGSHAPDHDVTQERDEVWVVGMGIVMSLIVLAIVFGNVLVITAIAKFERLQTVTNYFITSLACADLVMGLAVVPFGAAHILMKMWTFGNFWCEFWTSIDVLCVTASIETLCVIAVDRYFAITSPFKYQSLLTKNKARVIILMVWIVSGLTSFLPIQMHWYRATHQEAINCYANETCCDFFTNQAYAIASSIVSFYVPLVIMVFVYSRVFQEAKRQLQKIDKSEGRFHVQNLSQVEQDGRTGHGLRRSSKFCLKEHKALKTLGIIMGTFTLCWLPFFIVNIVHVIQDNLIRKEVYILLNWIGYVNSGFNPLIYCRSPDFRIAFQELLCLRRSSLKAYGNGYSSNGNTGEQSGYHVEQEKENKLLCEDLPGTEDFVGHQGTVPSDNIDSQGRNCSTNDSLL

[21] = molecular target: T6, Beta-2 adrenergic receptor; test: Dose response for HTS for Beta-2AR agonists via FAP method from Powderset2.; assay type: functional
INS1 [22] = test: beta-cell survival under cytokine stress – INS-1E, ATP luminescence, dry powder, dose response (AID 488844); assay type: functional, cell-based; settings: Rattus norvegicus
INS1 [23] = test: INS-1E mitochondrial potential loss inhibitors – cell-based, JC-1 fluorescence, dry powder, set 2, dose response (AID 488867); assay type: functional; settings: Rattus norvegicus
INS1 [24] = test: INS-1E mitochondrial potential rescue under cytokines – cell-based, JC-1 fluorescence ratio, dry powder, dose response (AID 488931); assay type: functional; settings: Rattus norvegicus

**Q.** What does the source list for O=C(C1CCC1)N1CCN(c2ccnc3cc(Cl)ccc23)CC1?
**A.** IC50 [1]: 22.1 µM (not active); IC50 (Insulin-degrading enzyme): 31.6 µM (not active); AC50 (Candida albicans [2]): 5 µM (active); AC50 (Candida albicans [3]): 1.5 µM (active); AC50 (Candida albicans [4]): 16.9 µM (active); AC50 (Candida albicans [5]): 0.58 µM (active)

**Q.** With CCOC(=O)CCS(=O)(=O)c1nc(-c2ccccc2)cc(C(F)(F)F)n1 as the compound, how does the EC50 [6] read?
**A.** The EC50 was < 0.2 µM (active).

**Q.** What about the EC50 (cells [7]) of the same compound?
**A.** The EC50 was > 350 µM (not active).

**Q.** What about the EC50 [8] of the same compound?
**A.** The EC50 was 4.94 µM (active).

**Q.** And the EC50 [9]?
**A.** Its EC50 is > 112 µM (not active).

**Q.** And the EC50 [10]?
**A.** The EC50 was 14.1 µM (active).

**Q.** And the EC50 [11]?
**A.** The EC50 was 4.4 µM (active).

**Q.** And the EC50 (cells [12])?
**A.** Its EC50 is 43.4 µM (active).

**Q.** And the EC50 (HT-1080)?
**A.** The EC50 was 14 µM (active).

**Q.** And the IC50 [13]?
**A.** Its IC50 is 3.58 µM (not active).

**Q.** And the IC50 [14]?
**A.** The IC50 was 0.843 µM (active).

**Q.** And the IC50 [15]?
**A.** The IC50 was 15.5 µM (not active).

**Q.** What about the CC50 [16] of the same compound?
**A.** The CC50 was 19.9 µM (active).

**Q.** What about the CC50 [17] of the same compound?
**A.** Its CC50 is 16.2 µM (active).

**Q.** What about the IC50 (cells [18]) of the same compound?
**A.** Its IC50 is 2.7 µM (active).

**Q.** And the IC50 (CHO)?
**A.** The IC50 was 3.49 µM (active).

**Q.** What about the AC50 [19] of the same compound?
**A.** Its AC50 is 4.45 µM (active).

**Q.** And the EC50 (Protein RecA)?
**A.** Its EC50 is 3.23 µM (active).

**Q.** What about the IC50 (Beta Lactamase) of the same compound?
**A.** The IC50 was 28.2 µM (inactive).

**Q.** With CCOC(=O)c1ccc(NC(=O)Cn2nnc(-c3ccccc3)n2)cc1 as the compound, how does the EC50 [20] read?
**A.** Its EC50 is 1.18 µM (active).

**Q.** And the EC50 [21]?
**A.** The EC50 was 1.31 µM (active).

**Q.** Which results are given for C[C@@H]1CN([C@H](C)CO)C(=O)c2cccc(NC(=O)Nc3ccc(F)cc3)c2O[C@H]1CN(C)S(=O)(=O)c1ccc(Cl)cc1?
**A.** AC50 (INS1 [22]): 48 µM (active); AC50 (INS1 [23]): 227 µM (active); AC50 (INS1 [24]): 62.1 µM (active)
